# Source: article PMC11844072, “Novel 5,6-dichlorobenzimidazole derivatives as dual BRAFWT and BRAFV600E inhibitors: design, synthesis, anti-cancer activity and molecular dynamics simulations” (BMC Chemistry, 2025)
# Assays:
# [1] = test system: NCI 60 cancer cell line panel; assay: NCI 60 single concentration growth inhibition, panel mean; assay type: cell-based; details: Homo sapiens, mean over NCI 60 panel, read-out: Mean GI%
# Method: (§1) The synthesized dichlorobenzimidazoles 10a–p were assayed for their influence on divers cancer cell lines according to the method presented in the Additional file A.
# (§2) 5. Screening of cytotoxic activity against a panel of sixty human tumor cell lines
# (§3) The selected compounds by NCI were evaluated for their anticancer activity in a two-stage process. First, these compounds were screened against the full NCI 60 cell lines panel at a single high dose of 10 µM. Then, the output from the single dose screen is reported as a mean graph. […]
# (§4) at five different minimal concentrations.
# (§5) Assay protocol. The human tumor cell lines of the cancer screening panel are grown in RPMI 1640 medium containing 5% fetal bovine serum and 2 mM L-glutamine. For a typical screening experiment, cells are inoculated into 96 well microtiter plates in 100 µL at plating densities ranging from 5000 to 40,000 cells/well depending on the doubling time of individual cell lines. After cell inoculation, the microtiter plates are incubated at 37 °C, 5% CO 2, 95% air and 100% relative humidity for 24 h prior to addition of the experimental drugs.
# (§6) After 24 h, two plates of each cell line are fixed in situ with TCA, to represent a measurement of the cell population for each cell line at the time of drug addition (Tz). The experimental drugs are solubilized in dimethyl sulfoxide at 400-fold the desired final maximum test concentration and stored frozen prior to use. At the time of drug addition, an aliquot of frozen concentrate is thawed and diluted to twice the desired final maximum test concentration with complete medium containing 50 µg/mL gentamicin. Additional four, 10-fold or ½ log serial dilutions are made to provide a total of five drug concentrations plus control.
# (§7) Aliquots of […] of these different drug dilutions are added to the appropriate microtiter wells already containing […] of medium, resulting in the required final drug concentrations.
# (§8) Following drug addition, the plates are incubated for an additional 48 h at 37 °C, 5% CO 2, 95% air, and 100% relative humidity. For adherent cells, the assay is terminated by the addition of cold TCA.
# (§9) Cells are fixed in situ by the gentle addition of 50 µL of cold 50% (w/v) TCA (final concentration, 10% TCA) and incubated for 60 min at 4 °C. The supernatant is discarded, and the plates are washed five times with tap water and air dried. Sulforhodamine B (SRB) solution ([…]) at 0.4% (w/v) in 1% acetic acid is added to each well, and plates are incubated for 10 min at room temperature. After staining, unbound dye is removed by washing five times with 1% acetic acid and the plates are air dried. Bound stain is subsequently solubilized with 10 mM trizma base, and the absorbance is read on an automated plate reader at a wavelength of 515 nm. For suspension cells, the methodology is […]
# (§10) the same except that the assay is terminated by fixing settled cells at the bottom of the wells by gently adding 50 µl of 80% TCA (final concentration, 16% TCA). Using the seven absorbance measurements [time zero, (Tz), control growth, (C), and test growth in the presence of drug at the five concentration levels (Ti)], the percentage growth is calculated at each of the drug concentrations […]
# (§11) Percentage growth inhibition is calculated as: [(Ti Tz)/(C–Tz)] x 100 for concentrations for which Ti>/=Tz and [(Ti-Tz)/Tz] x 100 for concentrations for which Ti < Tz.
# (§12) Three dose response parameters are calculated for each experimental agent. Growth […]
# (§13) concentration resulting in a 50% reduction in the net protein increase (as measured by SRB staining) in control cells during the drug incubation. The drug concentration resulting in total growth inhibition (TGI) is calculated from Ti = Tz. […]
# (§14) reduction in the measured protein at the end of the drug treatment as compared to that at the beginning) indicating a net loss of cells following treatment is calculated from [(Ti–Tz)/Tz] x 100 =
# (§15) _50. Values are calculated for each of these three parameters if the level of activity is reached; […]
# EKVX = assay: NCI 60 single concentration growth inhibition; assay type: cell-based, human; details: Homo sapiens, Non-small cell lung cancer, read-out: GI%
# Method: as §1, §2, §3, §4, §5, §6, §7, §8, §9, §10, §11, §12, §13, §14, §15
# ACHN = assay: NCI 60 single concentration growth inhibition; assay type: cell-based, human; details: Homo sapiens, Renal cancer, read-out: GI%
# Method: as §1, §2, §3, §4, §5, §6, §7, §8, §9, §10, §11, §12, §13, §14, §15
# OVCAR-5 = assay: NCI 60 single concentration growth inhibition; assay type: cell-based, human; details: Homo sapiens, OVCAR-5, Ovarian cancer, read-out: GI%
# Method: as §1, §2, §3, §4, §5, §6, §7, §8, §9, §10, §11, §12, §13, §14, §15
# NCI-H226 = assay: NCI 60 single concentration growth inhibition; assay type: cell-based, human; details: Homo sapiens, NCI-H226, Non-small cell lung cancer, read-out: GI%
# Method: as §1, §2, §3, §4, §5, §6, §7, §8, §9, §10, §11, §12, §13, §14, §15
# SF-268 = assay: NCI 60 single concentration growth inhibition; assay type: cell-based, human; details: Homo sapiens, SF-268, CNS cancer, read-out: GI%
# Method: as §1, §2, §3, §4, §5, §6, §7, §8, §9, §10, §11, §12, §13, §14, §15
# A549/ATCC = assay: NCI 60 single concentration growth inhibition; assay type: cell-based, human; details: Homo sapiens, Non-small cell lung cancer, read-out: GI%
# Method: as §1, §2, §3, §4, §5, §6, §7, §8, §9, §10, §11, §12, §13, §14, §15
# M14 = assay: NCI 60 single concentration growth inhibition; assay type: cell-based, human; details: Homo sapiens, M14, Melanoma, read-out: GI%
# Method: as §1, §2, §3, §4, §5, §6, §7, §8, §9, §10, §11, §12, §13, §14, §15
# UACC-257 = assay: NCI 60 single concentration growth inhibition; assay type: cell-based, human; details: Homo sapiens, UACC-257, Melanoma, read-out: GI%
# Method: as §1, §2, §3, §4, §5, §6, §7, §8, §9, §10, §11, §12, §13, §14, §15
# 786-0 = assay: NCI 60 single concentration growth inhibition; assay type: cell-based, human; details: Homo sapiens, 786-0, Renal cancer, read-out: GI%
# Method: as §1, §2, §3, §4, §5, §6, §7, §8, §9, §10, §11, §12, §13, §14, §15
# SF-295 = assay: NCI 60 single concentration growth inhibition; assay type: cell-based, human; details: Homo sapiens, SF-295, CNS cancer, read-out: GI%
# Method: as §1, §2, §3, §4, §5, §6, §7, §8, §9, §10, §11, §12, §13, §14, §15
# RPMI-8226 = assay: NCI 60 single concentration growth inhibition; assay type: cell-based, human; details: Homo sapiens, RPMI-8226, Leukemia, read-out: GI%
# Method: as §1, §2, §3, §4, §5, §6, §7, §8, §9, §10, §11, §12, §13, §14, §15
# RXF 393 = assay: NCI 60 single concentration growth inhibition; assay type: cell-based, human; details: Homo sapiens, RXF 393, Renal cancer, read-out: GI%
# Method: as §1, §2, §3, §4, §5, §6, §7, §8, §9, §10, §11, §12, §13, §14, §15
# T-47D = assay: NCI 60 single concentration growth inhibition; assay type: cell-based, human; details: Homo sapiens, T47D, Breast cancer, read-out: GI%
# Method: as §1, §2, §3, §4, §5, §6, §7, §8, §9, §10, §11, §12, §13, §14, §15
# MOLT-4 = assay: NCI 60 single concentration growth inhibition; assay type: cell-based, human; details: Homo sapiens, MOLT-4, Leukemia, read-out: GI%
# Method: as §1, §2, §3, §4, §5, §6, §7, §8, §9, §10, §11, §12, §13, §14, §15
# OVCAR-8 = assay: NCI 60 single concentration growth inhibition; assay type: cell-based, human; details: Homo sapiens, OVCAR-8, Ovarian cancer, read-out: GI%
# Method: as §1, §2, §3, §4, §5, §6, §7, §8, §9, §10, §11, §12, §13, §14, §15
# BT-549 = assay: NCI 60 single concentration growth inhibition; assay type: cell-based, human; details: Homo sapiens, BT-549, Breast cancer, read-out: GI%
# Method: as §1, §2, §3, §4, §5, §6, §7, §8, §9, §10, §11, §12, §13, §14, §15
# KM12 = assay: NCI 60 single concentration growth inhibition; assay type: cell-based, human; details: Homo sapiens, KM12, Colon cancer, read-out: GI%
# Method: as §1, §2, §3, §4, §5, §6, §7, §8, §9, §10, §11, §12, §13, §14, §15
# SN12C = assay: NCI 60 single concentration growth inhibition; assay type: cell-based, human; details: Homo sapiens, Renal cancer, read-out: GI%
# Method: as §1, §2, §3, §4, §5, §6, §7, §8, §9, §10, §11, §12, §13, §14, §15
# MDA-MB-435 = assay: NCI 60 single concentration growth inhibition; assay type: cell-based, human; details: Homo sapiens, MDA-MB-435, Melanoma, read-out: GI%
# Method: as §1, §2, §3, §4, §5, §6, §7, §8, §9, §10, §11, §12, §13, §14, §15
# PC-3 = assay: NCI 60 single concentration growth inhibition; assay type: cell-based, human; details: Homo sapiens, PC-3, Prostate cancer, read-out: GI%
# Method: as §1, §2, §3, §4, §5, §6, §7, §8, §9, §10, §11, §12, §13, §14, §15
# MCF7 = assay: NCI 60 single concentration growth inhibition; assay type: cell-based, human; details: Homo sapiens, MCF7, Breast cancer, read-out: GI%
# Method: as §1, §2, §3, §4, §5, §6, §7, §8, §9, §10, §11, §12, §13, §14, §15
SMILES,inhibition at 10 µM [1] [%],inhibition at 10 µM (EKVX) [%],inhibition at 10 µM (ACHN) [%],inhibition at 10 µM (OVCAR-5) [%],inhibition at 10 µM (NCI-H226) [%],inhibition at 10 µM (SF-268) [%],inhibition at 10 µM (A549/ATCC) [%],inhibition at 10 µM (M14) [%],inhibition at 10 µM (UACC-257) [%],inhibition at 10 µM (786-0) [%],inhibition at 10 µM (SF-295) [%],inhibition at 10 µM (RPMI-8226) [%],inhibition at 10 µM (RXF 393) [%],inhibition at 10 µM (T-47D) [%],inhibition at 10 µM (MOLT-4) [%],inhibition at 10 µM (OVCAR-8) [%],inhibition at 10 µM (BT-549) [%],inhibition at 10 µM (KM12) [%],inhibition at 10 µM (SN12C) [%],inhibition at 10 µM (MDA-MB-435) [%],further results
"COC(=O)COc1ccc(C=NNC(=O)Cn2c(-c3ccc(OC)cc3)nc3cc(Cl)c(Cl)cc32)cc1 [Compound 10h, Methyl-2-(4-((2-(2-(5,6-dichloro-2-(4-methoxyphenyl)-1H-benzo[d]imidazol-1-yl)acetyl)hydrazono)methyl)phenoxy)acetate]",36.6,< 5,106,< 5,< 5,< 5,< 5,10.8,< 5,112,< 5,< 5,85.7,107,53.2,148,6.87,< 5,66.4,18.3,inhibition at 10 µM (PC-3): 74.4%; inhibition at 10 µM (MCF7): 67.5%
"CCOC(=O)C(C)Oc1ccc(C=NNC(=O)Cn2c(-c3ccc(OC)cc3)nc3cc(Cl)c(Cl)cc32)cc1 (centres unmarked) [Compound 10j, Ethyl-2-(4-((2-(2-(5,6-dichloro-2-(4-methoxyphenyl)-1H-benzo[d]imidazol-1-yl)acetyl) hydrazono)methyl)phenoxy)propanoate]",18.4,21.7,18,< 5,7.33,14.3,< 5,9.09,< 5,11.3,21,40.2,43.7,72.8,53.2,20.7,11.8,< 5,51.9,24.8,inhibition at 10 µM (PC-3): 38.5%; inhibition at 10 µM (MCF7): 39%
"COc1ccc(-c2nc3cc(Cl)c(Cl)cc3n2CC(=O)NN=Cc2ccc(OC)c(O)c2)cc1 [Compound 10k, 2-(5,6-Dichloro-2-(4-methoxyphenyl)-1H-benzo[d]imidazol-1-yl)-N'-(3-hydroxy-4-methoxybenzylidene)acetohydrazide]",35.4,56.4,36.6,< 5,48.1,45.6,49.9,34.7,40.1,25.3,50,38.8,42.2,43.4,76.1,29.3,31.7,20.1,16.3,46.8,inhibition at 10 µM (PC-3): 56.6%; inhibition at 10 µM (MCF7): 68%
"COc1ccc(-c2nc3cc(Cl)c(Cl)cc3n2CC(=O)NN=Cc2ccc(O)c(OC)c2)cc1 [Compound 10l, 2-(5,6-Dichloro-2-(4-methoxyphenyl)-1H-benzo[d]imidazol-1-yl)-N'-(4-hydroxy-3-methoxybenzylidene)acetohydrazide]",34.6,51.9,32.4,< 5,47.5,53.7,35.4,33,36.3,30.7,38.1,48.3,32.2,51.3,70.8,27.1,50.2,25.4,19.9,42.2,inhibition at 10 µM (PC-3): 54.2%; inhibition at 10 µM (MCF7): 65.9%
"COC(=O)COc1cc(C=NNC(=O)Cn2c(-c3ccc(OC)cc3)nc3cc(Cl)c(Cl)cc32)ccc1OC [Compound 10o, Methyl-2-(5-((2-(2-(5,6-dichloro-2-(4-methoxyphenyl)-1H-benzo[d]imidazol-1-yl)acetyl)hydrazono)methyl)-2-methoxyphenoxy)acetate]",34.6,14,71.3,< 5,10.2,18.6,8.33,36.5,41.4,11.9,< 5,17.9,129,106,40.4,69.8,< 5,< 5,97.2,45.5,inhibition at 10 µM (PC-3): 51.2%; inhibition at 10 µM (MCF7): 33.4%
